Series [1] is described as follows: Caffeine and caffeine metabolites in plasma of ALS patients vs healthy control subjects (Examples 4, 5; Tables 9, 10). On the procedure:
Metabolomic analysis of two independent ALS studies was carried out to assess the changes of metabolite levels in plasma from ALS patients relative to healthy control subjects. Thirty-one healthy control volunteers and 31 participants with ALS enrolled in Study 1. Study 2 was comprised of ninety-nine participants with ALS and 94 healthy volunteers. All research participants provided informed consent. A board-certified neurologist reviewed and confirmed diagnosis for all participants. Data on gender, age, weight, and medications was collected. For participants with ALS, date and site of symptom onset, date of diagnosis, and family history of ALS was recorded. Healthy control subjects were defined by the absence of a known neurological disorder.
A measure of caffeine clearance rate is reflected in the ratio of caffeine metabolites to caffeine.

The nature of series [2]: Metabolomics demographic study of plasma from 270 healthy volunteers of various ages (Table 11). The class given is in vivo, human. Particulars: normal adults.
The nature of series [3]: Caffeine and paraxanthine in plasma of ALS patients vs peripheral neuropathy or myopathy patients (Examples 6, 7; Tables 12, 13). The class given is in vivo, human. On the procedure: All research participants provided informed consent. A board-certified neurologist reviewed and confirmed diagnosis for all participants. Data on gender, age, weight, and medications was collected. For participants with ALS, date and site of symptom onset, date of diagnosis, and family history of ALS was recorded.

Consider `Cn1c(=O)c2[nH]cnc2n(C)c1=O` [Theophylline], for which the “Theophylline/Caffeine (T/C) Ratio” value in series [1] (ALS subjects) was determined as 1.3684; in series [1] (Control subjects) it was 0.8857.
Regarding `Cn1c(=O)[nH]c2ncn(C)c2c1=O` [Paraxanthine, 1-7-dimethylxanthine], the “Paraxanthine/Caffeine (P/C) Ratio” value in series [2] (age 25-35) worked out at 1.1467; in series [2] (age 36-50), 1.0358; in series [2] (age 51-65), 0.7105. For the same molecule, the “Paraxanthine/Caffeine Ratio” value amounted to 0.7389 in series [3] (ALS), 0.4900 in series [3] (Myopathy) and 0.0294 in series [3] (PN).

The values above are taken from US8841077B2, “Biomarkers for amyotrophic lateral sclerosis and methods using the same” (Massachusetts General Hospital, priority 2006, dated 2014).
